Where a name gives a salt, the structure may show the parent alone. Read-outs that look alike come from different tables or passages of the source.
Tests used:
[1] = biological target: Rabbit Reticulocyte Lysate (eukaryotic protein synthesis); experiment: Rabbit reticulocyte lysate luciferase assay (inhibition of eukaryotic protein synthesis); assay type: biochemical; conditions: read-out: Rabbit reticulocyte IC50 (μM/% inhib.)
In short: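 Nuclease-treated rabbit reticulocyte lysate translating luciferase control RNA, with complete amino acids, was incubated at 30° C. for 90 minutes with 2-fold serial compound dilutions. Luminescence was measured after adding luciferase reagent. % inhibition was relative to water controls, with no-RNA wells as background.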

S. aureus (Sa) = experiment: Broth microdilution minimum inhibitory concentration (MIC); assay type: cell-based; conditions: Staphylococcus aureus, read-out: Sa + bicarb MIC
In short: (§1)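 Following CLSI M07-A9 with minor changes, growth medium was cation-adjusted Mueller-Hinton broth, alone or supplemented with bicarbonate (6.25 or 25 mM) or heat-inactivated human serum up to 50%. Each compound was tested over eight two-fold dilutions against 5×10^4 CFU per well.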

P. aeruginosa (Pa) = experiment: as above; assay type: cell-based; conditions: for MIC: Pseudomonas aeruginosa, read-out: Pa MIC + bicarb
In short: as §1

A. baumannii (Ab) = experiment: as above; assay type: cell-based; conditions: Acinetobacter baumannii, read-out: Ab + bicarb MIC
In short: as §1

E. faecalis (Ef) = experiment: as above; assay type: cell-based; conditions: for MIC: Enterococcus faecalis, read-out: Ef + bicarb MIC
In short: as §1

E. coli (Ec) = experiment: as above; assay type: cell-based; conditions: Escherichia coli, read-out: E. coli + bicarb MIC
In short: as §1

[2] = test system: E. coli S30 extract (bacterial protein synthesis); experiment: E. coli S30 extract coupled transcription-translation luciferase assay (inhibition of bacterial protein synthesis); assay type: biochemical; conditions: read-out: S30 IC50 (μM/% inhib.)
In short: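 Cell-free coupled transcription-translation in E. coli S30 circular-DNA extract, with pBESTluc plasmid as template and complete amino acid mix. Eight 2-fold compound dilutions were incubated with the extract 1 h at 37 °C, chilled, then luciferase luminescence was read. % inhibition was taken relative to no-inhibitor wells; no-DNA wells gave background.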

[3] = class by IC50 or % inhibition @ 1 μM
[4] = S. aureus, growth medium supplemented with sodium bicarbonate
[5] = P. aeruginosa, growth medium supplemented with sodium bicarbonate
[6] = A. baumannii, growth medium supplemented with sodium bicarbonate
[7] = E. faecalis, growth medium supplemented with sodium bicarbonate
[8] = E. coli, growth medium supplemented with sodium bicarbonate
[9] = S. aureus, growth medium with sodium bicarbonate
[10] = P. aeruginosa, growth medium with sodium bicarbonate
[11] = A. baumannii, growth medium with sodium bicarbonate
[12] = E. faecalis, growth medium with sodium bicarbonate
[13] = E. coli, growth medium with sodium bicarbonate

Structure (SMILES) | IC50 [1, 3] | MIC (S. aureus (Sa); [4]) | MIC (P. aeruginosa (Pa); [5]) | MIC (A. baumannii (Ab); [6]) | MIC (E. faecalis (Ef); [7]) | MIC (E. coli (Ec); [8]) | IC50 [2, 3] | MIC (S. aureus (Sa); [9]) | MIC (A. baumannii (Ab); [11]) | MIC (E. coli (Ec); [13]) | further results
CC(Cc1ccc(-n2ccc(NC(=O)N3CCN(C(=O)C(C)(C)N)CC3)nc2=O)cc1)N[C@H]1CC[C@@H](N)C1 (some centres unmarked) [Compound 150] | > 1 µM | < 8 µg/mL | > 32 µg/mL | > 32 µg/mL | > 32 µg/mL | < 8 µg/mL | 0.5 to 1 µM |  |  |  | 
C[C@@H]1CN(C(=O)C(C)(C)N)CCN1C(=O)Nc1ccn(-c2ccc(CN3CCC(N)CC3)cc2)c(=O)n1 [Compound 61] | > 1 µM | < 8 µg/mL | > 32 µg/mL | > 32 µg/mL | 8 to 32 µg/mL | < 8 µg/mL | < 0.5 µM |  |  |  | 
CC(C)(N)C(=O)N1CCN(C(=O)Nc2ccn(-c3ccc(CCN4CC(C5CCNCC5)C4)cc3)c(=O)n2)CC1 [Compound 372] |  |  |  |  |  |  |  | < 8 µg/mL | > 32 µg/mL | < 8 µg/mL | IC50 ([1]; % inhibition @ 1 μM): > 1 µM; MIC (P. aeruginosa (Pa); [10]): > 32 µg/mL; MIC (E. faecalis (Ef); [12]): > 32 µg/mL; IC50 ([2]; % inhibition @ 1 μM): > 1 µM
Cc1cc(NC(=O)N2CCN(C(=O)C(C)(C)N)CC2)nc(=O)n1-c1ccc(CN2CCC(N)CC2)cc1 [Compound 292, hydrochloride salt] | > 1 µM |  |  |  |  |  | > 1 µM |  |  |  | MIC (S. aureus (Sa)): > 32 µg/mL; MIC (P. aeruginosa (Pa)): > 32 µg/mL; MIC (A. baumannii (Ab)): > 32 µg/mL; MIC (E. faecalis (Ef)): > 32 µg/mL; MIC (E. coli (Ec)): > 32 µg/mL
CN(CCc1ccc(-n2ccc(NC(=O)N3CCN(C(=O)C(C)(C)N)CC3)nc2=O)cc1)[C@H]1CC[C@@H](CN)C1 (stereo in doubt) [Compound 178] | > 1 µM |  |  |  |  |  | > 1 µM | 8 to 32 µg/mL | > 32 µg/mL | < 8 µg/mL | MIC (P. aeruginosa (Pa); [10]): > 32 µg/mL; MIC (E. faecalis (Ef); [12]): > 32 µg/mL
CC(C)(N)C(=O)N1CCN(C(=O)Nc2ccn(-c3ccc(C[C@H](N)C(=O)N4CCCC(N)CC4)cc3)c(=O)n2)CC1 (some centres unmarked) [Compound 148] | > 1 µM | > 32 µg/mL | > 32 µg/mL | > 32 µg/mL | > 32 µg/mL | > 32 µg/mL | < 0.5 µM |  |  |  | 
CC(C)(N)C(=O)N1CCN(C(=O)Nc2ccn(-c3ccc(CN4CCCC(N)CC4)c(F)c3)c(=O)n2)CC1 (centres unmarked) [Compound 334, hydrochloride salt] | > 1 µM |  |  |  |  |  | < 0.5 µM |  |  |  | MIC (S. aureus (Sa)): 8 to 32 µg/mL; MIC (P. aeruginosa (Pa)): > 32 µg/mL; MIC (A. baumannii (Ab)): > 32 µg/mL; MIC (E. faecalis (Ef)): > 32 µg/mL; MIC (E. coli (Ec)): < 8 µg/mL
CC(C)(N)C(=O)N1CCN(C(=O)Nc2ccn(-c3ccc(CCN[C@H]4CC[C@@H](CN)C4)cc3)c(=O)n2)CC1 (stereo in doubt) [Compound 177] | > 1 µM |  |  |  |  |  | > 1 µM | < 8 µg/mL | > 32 µg/mL | < 8 µg/mL | MIC (P. aeruginosa (Pa); [10]): > 32 µg/mL; MIC (E. faecalis (Ef); [12]): > 32 µg/mL
CCN(Cc1ccc(-n2ccc(NC(=O)N3CCN(C(=O)C(C)(C)N)CC3)nc2=O)cc1)[C@H]1CC[C@H](N)CC1 [Compound 119] | > 1 µM | < 8 µg/mL | < 8 µg/mL | < 8 µg/mL | < 8 µg/mL | < 8 µg/mL | < 0.5 µM |  |  |  | 
CCN(C(C)Cc1ccc(-n2ccc(NC(=O)N3CCN(C(=O)C(C)(C)N)CC3)nc2=O)cc1)C1CCC(N)CC1 (centres unmarked) [Compound 281] | > 1 µM |  |  |  |  |  | < 0.5 µM | < 8 µg/mL | > 32 µg/mL | < 8 µg/mL | Pa MIC + bicarb (P. aeruginosa (Pa); [10]): ++ (An MIC value (μg/mL) that is 8 μg/mL or greater and less than 32 μg/mL); Ef + bicarb MIC (E. faecalis (Ef); [12]): +++ (An MIC value (μg/mL) that is less than 8 μg/mL)
CCN(Cc1ccc(-n2ccc(NC(=O)N3CCN(C(=O)C(C)(C)N)CC3)nc2=O)cc1)[C@H]1CC[C@H](N)C(C)C1 (some centres unmarked) [Compound 338, hydrochloride salt] | > 1 µM |  |  |  |  |  | < 0.5 µM |  |  |  | MIC (S. aureus (Sa)): < 8 µg/mL; MIC (P. aeruginosa (Pa)): > 32 µg/mL; MIC (A. baumannii (Ab)): > 32 µg/mL; MIC (E. faecalis (Ef)): 8 to 32 µg/mL; MIC (E. coli (Ec)): < 8 µg/mL

— patent US12503452B2 (Curza Global, LLC, priority 2019, dated 2025)
